Measurements from paper PMC3878918, “Cathepsin K inhibitors increase distal femoral bone mineral density in rapidly growing rabbits” (BMC Musculoskeletal Disorders, 2013).
Read-outs that look alike come from different tables or passages of the source.

Key:
[1] = tested on: rabbit osteoclasts; assay: In vitro bone resorption assay, rabbit osteoclasts on bovine bone slices, CTx-I release; assay type: cell-based
Experimental: The bone resorption assay is a functional in vitro assay that measures Type-I collagen degradation after a three-day incubation of rabbit osteoclasts cultured on bovine bone with varying concentrations of test compound, as previously described. Briefly, long bones isolated from a 10-day-old NZW rabbit were finely minced in alpha-minimal essential medium (α-MEM) (Gibco BRL; Gaithersburg, MD, USA) containing penicillin/streptomycin, pH 7.1 to obtain a cell suspension and 1 × 10^6 cells were seeded onto each 6 mm diameter × 0.22 mm thick bovine bone slice in the same medium containing 2% fetal bovine serum (FBS). After 4 h, the medium was replaced with α-MEM, 2% FBS, 1,25(OH)2D3 10 nM, and test compounds. The cultures were incubated for three days at 37°C in 5% CO2. C-telopeptide of Type-I collagen (CTx-I) released into the medium was measured by the CROSSLAPS Elisa assay (Osteometer Biotech, Herlev, Denmark).

[2] = tested on: rapidly growing rabbits; assay: Rabbit Schenk assay: distal femoral BMD by ex vivo DXA and histology after 10 days' treatment; assay type: in vivo; settings: for increase in DFBMD vs vehicle / Distal femur BMD / DFBMD / % BMD gain / DFBMD of representative DXA image: 10 days; for Distal femur BMD / DFBMD: mean ± SEM; for DFBMD: dose-ranging study; for % BMD gain: vs vehicle; for DFBMD of representative DXA image: single representative femur
Experimental: To characterize the dose of ALN required to show increases in DFBMD, dose-ranging studies were conducted using ALN, administered at doses of 0, 50, 100, 200, and 500 μg/kg (SC, once daily). Seven-week-old rabbits were weight-randomized into groups (n = 8-11 per group). ALN was prepared in deionized water and pH adjusted to 7.2. The injection volume was 0.3 mL per rabbit. Rabbits were treated daily for 10 consecutive days. Rabbits were reweighed on Day 6 and dosing volume was adjusted accordingly. At necropsy, the right femur was excised and stored in 70% ethanol.
Rabbits were treated once daily by oral gavage for 10 consecutive days with vehicle (1% carboxymethylcellulose or 0.5%/0.2% carboxymethylcellulose/SDS), CatK inhibitors, or ALN (100 μg/kg, SC). Several studies were conducted, with each study including vehicle (n = 11–14), multiple dose levels of a CatK inhibitor (n = 13–14 per group), and ALN (n = 8–9). On Day 1, two rabbits from each group receiving CatK inhibitors were bled via the central ear artery (0.5 mL each) at 0, 0.25, 1, 3, 6, 8, and 24 h after dosing. Plasma concentrations of CatK inhibitors were determined in all samples. On Day 11, rabbits were euthanized. Femurs were removed and stored in 70% ethanol for BMD analysis.
Whole right femurs with muscles removed, were immersed in two inches of water in an acrylic box, and positioned with both distal condyles resting on the bottom of the box. The distal 5 cm of the femur was scanned using small animal software in high resolution mode on a Hologic QDR 4500 fan-beam bone densitometer (DXA; Hologic, Inc., Waltham, MA, USA). The distal 3 cm of the femur was analyzed. A region of interest (ROI) beginning one line distal to the distal edge of the femur and centered 70 lines wide and extending 60 lines proximally in the long axis of the bone was applied. Bone mineral content (BMC) and bone area (BAr) were output by DXA software. BMD was calculated as BMC/BAr.
Following ex vivo DXA scanning, the distal one-third of the femur was cut mid-sagitally and then dehydrated, without prior decalcification, in increasing concentrations of ethanol. The right portion was embedded in 80% methylmethacrylate/20% dibutyl phthalate. Parasagittal sections (6 μm) were cut on a Reichert-Jung Polycut sledge microtome (Nussloch, Germany) and mounted on glass slides. A Masson’s trichrome stain was performed to view calcified tissue.

[3] = tested on: rabbit CatK; settings: 2 μM Z-Leu-Arg-AMC as substrate; cited from earlier work
[4] = tested on: rabbit osteoclasts; parameters: method as in PMID 16302795, PMID 18226527; settings: three-day incubation, CTx-I release; read-out: IC50 Rabbit bone resorption assay; cited from earlier work
[5] = parameters: method as in PMID 16302795, PMID 18226527; settings: rabbit, cited from earlier work; for Cmin / AUC / Cmax: oral; for Cmin: trough at 24 h
[6] = tested on: growing rats; settings: cited from earlier work; for trabecular bone volume in the proximal tibial metaphysis vs untreated rats: growing rats, ten days
[7] = tested on: weanling rats; settings: six weeks of once-weekly treatment; cited from earlier work
[8] = tested on: human CatK; parameters: method as in PMID 19453281; settings: cited from earlier work
[9] = tested on: rat CatK; parameters: method as in PMID 19453281; settings: cited from earlier work
[10] = tested on: mouse CatK; parameters: method as in PMID 19453281; settings: cited from earlier work
[11] = printed in the 3 mg/kg dose row
[12] = printed in the 10 mg/kg dose row

| Structure (SMILES) | increase in DFBMD vs vehicle ([2]; 10 mg/kg oral once daily) | Distal femur BMD ([2]; 10 mg/kg oral once daily) | IC50 [3] | IC50 [4] | Cmin ([5]; 10 mg/kg) | AUC ([5]; 10 mg/kg) | Cmax ([5]; 10 mg/kg) | fold more potent in the bone resorption assay than L-833905 [1] | increase in DFBMD vs vehicle ([2]; 3 mg/kg oral once daily) | Cl ([5]; 1 mg/kg dose) | Cmin ([5]; 1 mg/kg, LOD ~ 1 nM) | AUC ([5]; 1 mg/kg) | Cmax ([5]; 1 mg/kg) | Cmin ([5]; 3 mg/kg) | AUC ([5]; 3 mg/kg) | Cmax ([5]; 3 mg/kg) | further results |
| --- | --- | --- | --- | --- | --- | --- | --- | --- | --- | --- | --- | --- | --- | --- | --- | --- | --- |
| CC(C)C[C@@H](C(=O)NCC#N)c1cccc(-c2ccc(N3CCNCC3)cc2)c1 [Compound L-833905, (R)-N-(cyanomethyl)-4-methyl-2-(4′-(piperazin-1-yl)-[1,1′-biphenyl]-3-yl)pentanamide] | 3% | 282.5 ± 5.5 mg/cm^2 | 33 ± 2 nM | 149 ± 20 nM | 29 nM | 1.9 μm*hr | 163 nM |  |  |  |  |  |  |  |  |  | fold less potent inhibitor of CatK than L-006235, L-873724 and ODN ([1]; from the EIA and functional cell-based assay): 6–30 fold; increase in DFBMD vs vehicle ([2]; 30 mg/kg oral once daily): 10%; Distal femur BMD ([2]; 30 mg/kg oral once daily): 301.8 ± 4.9 mg/cm^2; Cmin ([5]; 30 mg/kg): 60 nM; AUC ([5]; 30 mg/kg): 6.1 μm*hr; Cmax ([5]; 30 mg/kg): 651 nM |
| NCCCC(O)(P(=O)(O)O)P(=O)(O)O [ALN, alendronate, reference compound] |  |  |  |  |  |  |  |  |  |  |  |  |  |  |  |  | histology of distal femoral metaphysis compared to vehicle ([2]; 10 days' treatment, Masson's trichrome): increased retention of both calcified cartilage and bone tissue; DFBMD ([2]; ALN 50 μg/kg SC once daily): 277.8 ± 8.4 mg/cm^2; % BMD gain ([2]; ALN 50 μg/kg/day SC): 15%; DFBMD ([2]; ALN 100 μg/kg SC once daily): 313.7 ± 3.9 mg/cm^2; Distal femur BMD ([2]; ALN 100 μg/kg SC positive control in the L-006235 study): 300.5 ± 4.6 mg/cm^2; Distal femur BMD ([2]; ALN 100 μg/kg SC positive control in the L-833905 study): 314.0 ± 9.1 mg/cm^2; Distal femur BMD ([2]; ALN 100 μg/kg SC positive control in the L-873724 study): 352.8 ± 9.4 mg/cm^2; % BMD gain ([2]; ALN 100 μg/kg/day SC): 16%; DFBMD of representative DXA image ([2]; ALN 100 μg/kg/day): 361 mg/cm^2; DFBMD ([2]; ALN 200 μg/kg SC once daily): 281.7 ± 6.4 mg/cm^2; % BMD gain ([2]; ALN 200 μg/kg/day SC): 16%; DFBMD ([2]; ALN 500 μg/kg SC once daily): 291.2 ± 9.4 mg/cm^2; % BMD gain ([2]; ALN 500 μg/kg/day SC): 21%; trabecular bone volume ([6]; seven days SC 0.010 mg/kg/d): increased trabecular bone volume; distal femoral metaphyseal BMD [7]: increase in distal femoral metaphyseal BMD |
| CC(C)C[C@H](N[C@@H](c1ccc(-c2ccc(S(C)(=O)=O)cc2)cc1)C(F)(F)F)C(=O)NCC#N [Compound L-873724] | 15% | 327.7 ± 7.5 mg/cm^2 | 0.8 nM | 13 ± 1 nM | 32 nM | 7.8 μm*hr | 1370 nM | approximately 30 fold | 9% | 26 mL/min/kg | <LOD* | 0.5 μm*hr | 78 nM | 28 nM | 3.1 μm*hr | 490 nM | Distal femur BMD ([2]; 1 mg/kg oral once daily): 301.2 ± 3.7 mg/cm^2; Distal femur BMD ([2]; 3 mg/kg oral once daily): 310.5 ± 6.5 mg/cm^2; Cl [5, 11]: 26 mL/min/kg; Cl [5, 12]: 26 mL/min/kg |
| CC(O)(P(=O)(O)O)P(=O)(O)O [etidronate] |  |  |  |  |  |  |  |  |  |  |  |  |  |  |  |  | trabecular bone volume in the proximal tibial metaphysis vs untreated rats [6]: higher trabecular bone volume |
| CN1CCN(c2nc(-c3ccc(C(=O)NC4(C(=O)NCC#N)CCCCC4)cc3)cs2)CC1 [Compound L-006235] | 15% | 303.5 ± 5.4 mg/cm^2 | 0.5 nM | 5 ± 1 nM | 8 nM | 5.0 μm*hr | 2440 nM | approximately 30 fold | 11% | 113 mL/min/kg | 9 nM | 0.3 μm*hr | 74 nM | 15 nM | 1.0 μm*hr | 337 nM | increase in DFBMD vs vehicle ([2]; 1 mg/kg oral once daily): 7%; Distal femur BMD ([2]; 1 mg/kg oral once daily): 281.7 ± 4.9 mg/cm^2; Distal femur BMD ([2]; 3 mg/kg oral once daily): 293.5 ± 2.8 mg/cm^2; Cl [5, 11]: 113 mL/min/kg; Cl [5, 12]: 113 mL/min/kg |
| CC(C)(F)C[C@H](N[C@@H](c1ccc(-c2ccc(S(C)(=O)=O)cc2)cc1)C(F)(F)F)C(=O)NC1(C#N)CC1 [ODN, odanacatib] |  |  | 1 nM | 23 ± 6 nM |  |  |  | approximately 30 fold | 19% | 6 mL/min/kg | 37 nM | 2.2 μm*hr | 130 nM | 88 nM | 4.1 μm*hr | 270 nM | increase in DFBMD vs vehicle ([2]; 0.3 mg/kg oral once daily): 7%; increase in DFBMD vs vehicle ([2]; 1 mg/kg oral once daily): 11%; DFBMD of representative DXA image ([2]; ODN 3 mg/kg): 388 mg/cm^2; AUC ([5]; 0.3 mg/kg): 0.7 μm*hr; Cl ([5]; printed in the 0.3 mg/kg dose row): 6 mL/min/kg; IC50 [8]: 0.2 nM; IC50 [9]: 112 nM; fold less potent versus rat CatK than versus human and rabbit CatK [9]: more than 500 fold; IC50 [10]: 108 nM; fold less potent versus mouse CatK than versus human and rabbit CatK [10]: more than 500 fold |
| O=P(O)(O)C(Cl)(Cl)P(=O)(O)O [clodronate] |  |  |  |  |  |  |  |  |  |  |  |  |  |  |  |  | trabecular bone volume in the proximal tibial metaphysis vs untreated rats [6]: higher trabecular bone volume |
